For one molecule, apoptosis-inducing effect results are on record in patent US20250059201A1, “CAMPTOTHECIN COMPOUND AND CONJUGATE THEREOF” (priority 2021, published 2025).

The subject of this experiment is BxPC-3 cells. Description: Apoptosis-inducing effect. It counts as cell-based. To be noted: BxPC-3, 120 hours, over the tested concentrations. How it is done: BxPC-3 cells (purchased from: ATCC) were inoculated into 6-well plates, and then treated with Trop2-ADC-14 (0.020, 0.196, and 1.963 nM), DS-1062 (0.020, 0.196, and 1.963 nM), the mAb in Trop2-ADC-14 (i.e., antibody h23-12) (6.728 nM) and Compound 3 (0.1, 1, and 10 nM) for 120 hours. Next, the cells were harvested, and Annexin-V-FITC and PI were added thereto, and the cells were stained at room temperature for 15 minutes in dark, and finally were re-suspended in the added 300 μl of 1× binding buffer. Apoptosis was detected with a flow cytometer (BD AccuriTMC6 Plus flow cytometer), for which 1×10^4 cells were gated for each group. Experimental data was analyzed using software BD CSampler™ Plus C6.

For `CC[C@@]1(O)C(=O)OCc2c1cc1n(c2=O)Cc2c-1nc1ccc(N)c3c1c2C(F)(F)CC3` [Compound 3], the apoptosis-inducing effect result is reported as “induced apoptosis of BxPC-3 cells in a concentration-dependent manner”.
